According to article PMC6934184, “Selective DNA-PKcs inhibition extends the therapeutic index of localized radiotherapy and chemotherapy” (The Journal of Clinical Investigation, 2019):

Target: T1, PRKCI (PKC iota) (Homo sapiens, UniProt P41743)
T1 construct: purchased Thermo Fisher Scientific (Life Technologies) SelectScreen
Test: SelectScreen Z'LYTE
Type: biochemical
Summary of the method: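 Percent values come from Thermo SelectScreen profiling of NU5455, combining activity and binding assays. CSF1R was run in Z'LYTE format at Km app ATP, and CAMK1 in Adapta format with ATP listed at 10.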

T1 sequence (P41743 whole entry): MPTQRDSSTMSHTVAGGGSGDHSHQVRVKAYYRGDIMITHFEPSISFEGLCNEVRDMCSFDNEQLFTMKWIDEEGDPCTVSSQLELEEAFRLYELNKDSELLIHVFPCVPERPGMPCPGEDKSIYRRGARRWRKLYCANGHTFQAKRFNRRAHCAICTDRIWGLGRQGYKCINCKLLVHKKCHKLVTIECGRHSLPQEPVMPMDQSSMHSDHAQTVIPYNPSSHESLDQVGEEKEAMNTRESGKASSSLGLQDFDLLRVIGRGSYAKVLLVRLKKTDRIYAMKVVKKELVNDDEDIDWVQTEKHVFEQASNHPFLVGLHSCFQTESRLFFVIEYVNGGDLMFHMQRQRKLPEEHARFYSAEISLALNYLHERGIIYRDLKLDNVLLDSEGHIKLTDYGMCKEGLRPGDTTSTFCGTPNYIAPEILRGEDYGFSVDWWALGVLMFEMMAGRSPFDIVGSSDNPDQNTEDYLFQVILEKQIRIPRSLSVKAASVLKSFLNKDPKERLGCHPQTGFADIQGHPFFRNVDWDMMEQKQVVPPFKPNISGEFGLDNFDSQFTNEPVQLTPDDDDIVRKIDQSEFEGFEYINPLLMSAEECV

## CN(C(=O)CN1CCOCC1)c1ccc2sc3c(-c4cccc5c(=O)cc(N6CC7CCC(C6)O7)oc45)cccc3c2c1 [NU5455]
  inhibition at 1 µM: -0.8%
